“And” between values parts separate entries of the source, which are not always exact repeats. Equal values may be shown once.
Key:
[1] = target: Apoptosis regulator Bcl-2 (Homo sapiens, UniProt P10415); test: Fluorescence Polarization Assay and FL5.12 Cellular Assay
Procedure: (§1) The binding affinities (Ki) of compounds were determined using fluorescence polarization assays (FPA) that measure their ability to competitively displace a Bad-derived peptide from Bcl-xL. Compound efficacy (EC50) in a cellular context was evaluated by testing their ability to reverse the protection from cytokine withdrawal afforded by overexpression of Bcl-xL in the IL-3 dependent murine pro-B cell line FL5.12.

[2] = target: T1, Bcl-2-like protein 1 (Homo sapiens, UniProt Q07817); test: Fluorescence Polarization (FP) Assay and FL5.12 Cellular Assay; conditions: pH 7.4; 25 °C
T1 sequence (Q07817 whole entry): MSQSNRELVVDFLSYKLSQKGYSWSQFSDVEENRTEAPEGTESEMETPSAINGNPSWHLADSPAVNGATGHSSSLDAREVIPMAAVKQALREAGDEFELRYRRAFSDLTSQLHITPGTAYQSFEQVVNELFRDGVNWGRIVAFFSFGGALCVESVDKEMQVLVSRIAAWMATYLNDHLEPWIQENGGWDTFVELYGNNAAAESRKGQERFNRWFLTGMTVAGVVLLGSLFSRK
Procedure: as §1, with “Bcl-xL. […]” for “Bcl-xL.”

[3] = target: T1, Bcl-2-like protein 1; test: Fluorescence Polarization Assay and FL5.12 Cellular Assay
Procedure: as §1

[4] = The binding affinities (Ki) of compounds were determined using fluorescence polarization assays (FPA) that measure their ability to competitively displace a Bad-derived peptide from Bcl-xL. Compound efficacy (EC50) in a cellular context was evaluated by testing their ability to reverse the protection from cytokine w

Apoptosis regulator Bcl-2, sequence (P10415 whole entry): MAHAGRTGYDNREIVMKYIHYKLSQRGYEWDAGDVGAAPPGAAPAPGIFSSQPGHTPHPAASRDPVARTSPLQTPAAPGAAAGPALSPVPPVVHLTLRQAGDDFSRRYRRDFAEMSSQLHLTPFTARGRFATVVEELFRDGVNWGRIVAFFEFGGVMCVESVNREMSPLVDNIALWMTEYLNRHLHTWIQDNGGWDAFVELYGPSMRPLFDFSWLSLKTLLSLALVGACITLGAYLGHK

EC50 [1]	Ki [1]	EC50 [2]	IC50 [2]	Ki [2]	Ki [3]	EC50 [4]	SMILES
3000 nM	20 nM	8000 nM	312 nM	1.3 nM			CCCCC1(OC)CCN(c2ccc(C(=O)NS(=O)(=O)c3ccc(N[C@H](CCN(C)C)CSc4ccccc4)c([N+](=O)[O-])c3)cc2)CC1 [4-(4-butyl-4-methoxypiperidin-1-yl)-N-[(4-{[(2R)-4-(dimethylamino)-1-(phenylsulfanyl)butan-2-yl]amino}-3-nitrobenzene)sulfonyl]benzamide]
					9.1 nM	460 nM and 530 nM	CN(C)CC[C@H](CSc1ccccc1)Nc1ccc(S(=O)(=O)NC(=O)c2ccc(N3CCN(Cc4ccccc4-c4ccc(S(C)(=O)=O)cc4)CC3)cc2)cc1[N+](=O)[O-] [N-[(4-{[(2R)-4-(dimethylamino)-1-(phenylsulfanyl)butan-2-yl]amino}-3-nitrobenzene)sulfonyl]-4-(4-{[2-(4-methanesulfonylphenyl)phenyl]methyl}piperazin-1-yl)benzamide]
